Assay results: patent US8859021B2, “Skin appearance through gene manipulation” (Sytheon, priority 2007, dated 2014)

Tests used:
EpiDerm tissues = conditions: retinol 10 μg/ml, Sytenol A 5 μg/ml, 2 days, vs 0.1% DMSO control
skin = conditions: in vivo

C=C[C@@](C)(/C=C/c1ccc(O)cc1)CCC=C(C)C [Sytenol A, bakuchiol]
Fold Change, JUP Catenin gamma (Junction plakoglobin) (Table 8) (EpiDerm tissues): +3.83 fold
Fold Change, JUP Catenin gamma (Table 9) (EpiDerm tissues): +3.83 fold
Fold Change, KIF1C Kinesin-like protein KIF1C (EpiDerm tissues): +2.03 fold
Fold Change, KIF2A Kinesin-like protein KIF2A (EpiDerm tissues): No effect
Fold Change, KIF4A Chromosome-associated kinesin KIF4A (EpiDerm tissues): +2.15 fold
Fold Change, KIF13A Kinsein-like protein KIF13A (EpiDerm tissues): No effect
Fold Change, KIF13B Kinsein-like protein KIF13B (EpiDerm tissues): +3.53 fold
Fold Change, KIF17 Kinesin-like protein KIF17 (EpiDerm tissues): +2.44 fold
Fold Change, KIF26A Kinesin family member 26A (EpiDerm tissues): No effect
Fold Change, KIFC2 Kinesin-like protein KIFC2 (EpiDerm tissues): No effect
Fold Change, KRT2 Keratin-2; Cytokeratin-2e (CK 2e) (EpiDerm tissues): −3.53 fold
Fold Change, KRT5 Keratin-5, Cytokeratin-5 (CK-5) (EpiDerm tissues): +2.81 fold
Fold Change, KRT7 Keratin-7; Cytokeratin-7 (CK-7) (EpiDerm tissues): +13.75 fold
Fold Change, KRT13 Keratin-13; Cytokeratin-13 (CK-13) (EpiDerm tissues): +16.34 fold
Fold Change, KRT15 Keratin-15; Cytokeratin-15 (CK-15) (EpiDerm tissues): +11.29 fold
Fold Change, KRT19 Keratin-19; Cytokeratin-19 (CK-19) (EpiDerm tissues): +20.67 fold
Fold Change, LAMA3 Laminin subunit alpha-3 precursor (Epiligrin 170 kDa subunit) (EpiDerm tissues): +11.03 fold
Fold Change, LAMC2 Laminin subunit gamma-2 precursor (Laminin B2t chain) (EpiDerm tissues): +7.84 fold
Fold Change, LRAT Lecithin retinol acyltransferase (EpiDerm tissues): +82.23 fold
Fold Change, LRRC49 Tubulin polyglutamylase complex subunit 4 (PGs4) (EpiDerm tissues): −3.47 fold
Fold Change, MC1R, TUBB3 Tubulin beta-3-chain (Tubulin beta-III) (EpiDerm tissues): +3.23 fold
Fold Change, MMP9 Matrix metalloprotease-9-precursor (EpiDerm tissues): +12.61 fold
Fold Change, MMP15 Matrix metalloprotease-15 precursor (EpiDerm tissues): +4.19 fold
Fold Change, MMP21 Matrix metalloprotease-21 precursor (EpiDerm tissues): −7.89 fold
Fold Change, MMP23A, MMP23B Matrix metalloprotease-23 (EpiDerm tissues): −8.83 fold
Fold Change, MMP26 Matrix metalloprotease-26-precursor (MMP-26) (EpiDerm tissues): +2.91 fold
Fold Change, MMP28 Matrix metalloprotease-28-precursor (EpiDerm tissues): +15.91 fold
Fold Change, MYH14 Myosin-14 (EpiDerm tissues): +5.72 fold
Fold Change, MYL2 Myosin regulatory light chain 2 (EpiDerm tissues): −2.50 fold
Fold Change, MYO1F Myosin-lf (Myosin-le) (EpiDerm tissues): +3.44 fold
Fold Change, MYO6 Myosin-VI (EpiDerm tissues): +2.38 fold
Fold Change, Mast/stem cell growth factor receptor precursor (SCFR) (Proto-oncogene tyrosine-protein kinase kit (c-kit)) (EpiDerm tissues): −2.31 fold
Fold Change, NDST4 N-heparan sulfate sulfotransferase 4 (EpiDerm tissues): +4.43 fold
Fold Change, NEIL2 DNA glycosylase/AP lyase Neil2 (EpiDerm tissues): +4.17 fold
Fold Change, NF-kappa-B-activating protein (EpiDerm tissues): −2.32 fold
Fold Change, NGRN, TTLL13 Tubulin tyrosine ligase-like family, member 13 (EpiDerm tissues): +12.65 fold
Fold Change, NT5C1B, RDH14 Retinol dehydrogenase 14 (Alcohol dehydrogenase PAN20) (EpiDerm tissues): −3.57 fold
Fold Change, Nuclear factor Kappa B p105 unit (NF-kappa-B) (DNA-binding factor KBF 1) (EpiDerm tissues): −2.01 fold
Fold Change, PARP2 Poly (ADP-ribose) polymerase 2 (EpiDerm tissues): +1.46 fold
Fold Change, PARP9 Poly (ADP-ribose) polymerase 9 (EpiDerm tissues): +7.74 fold
Fold Change, PARP12 Poly (ADP-ribose) polymerase 12 (EpiDerm tissues): +6.05 fold
Fold Change, PARP15 Poly (ADP-ribose) polymerase 15 (EpiDerm tissues): No effect
Fold Change, PCDH11X Procadherin-11 (EpiDerm tissues): +10.15 fold
Fold Change, PCDH18 Procadherin-18-precursor (EpiDerm tissues): No effect
Fold Change, PCDH19 Procadherin-19-precursor (EpiDerm tissues): No effect
Fold Change, PCDHB1 Procadherin-beta-1-precursor (EpiDerm tissues): +2.00 fold
Fold Change, PCDHB2 Procadherin-beta-2-precursor (EpiDerm tissues): +18.74 fold
Fold Change, PCDHB3 Procadherin-beta-3-precursor (EpiDerm tissues): No effect
Fold Change, PCDHB4 Procadherin-beta-4-precursor (EpiDerm tissues): −7.81 fold
Fold Change, PFN4 Profilin-4 (Profilin IV) (EpiDerm tissues): No effect
Fold Change, PI3 Elastase-specific inhibitor (EpiDerm tissues): +2.72 fold
Fold Change, Protein Kinase B (RAC-alpha serine/threonine-protein kinase) (RAC-PK-alpha) (EpiDerm tissues): −3.47 fold
Fold Change, RARRES1 Retinoic acid receptor responder protein 1 (EpiDerm tissues): +12.87 fold
Fold Change, RBP1 Cellular Retinol-binding protein-I (EpiDerm tissues): +4.17 fold
Fold Change, RBP2 Cellular Retinol-binding protein-II (EpiDerm tissues): +4.12 fold
Fold Change, RBP7 Cellular retinoic acid-binding protein 4 (EpiDerm tissues): +3.09 fold
Fold Change, RETSAT All-trans-retinol 13,14-reductase precursor (EpiDerm tissues): −2.84 fold
Fold Change, SELE E-selection precursor (Endothelial leukocyte adhesion molecule 1) (ELAM-1) (EpiDerm tissues): No effect
Fold Change, SERPINB1 Leukocyte elastase inhibitor (EpiDerm tissues): +6.09 fold
Fold Change, SIR2-like protein1/NAD-dependent deacetylase sirtuin-1 (hSIRT1) (EpiDerm tissues): −1.54 fold
Fold Change, SIR2-like protein2/NAD-dependent deacetylase sirtuin-2 (EpiDerm tissues): +1.52 fold
Fold Change, SIR2-like protein7/NAD-dependent deacetylase sirtuin-7 (EpiDerm tissues): +2.47 fold
Fold Change, SRRM1 Serine/arginine repetitive matrix protein 1 (SR-related nuclear matrix protein 160 kDa) (SRm160) (EpiDerm tissues): +3.13 fold
Fold Change, TBCEL Tubulin-specific chaperone cofactor E-like protein (EL) (EpiDerm tissues): No effect
Fold Change, TTBK1 Tau-tubulin kinase 1 (EpiDerm tissues): No effect
Fold Change, TTLL1 Tubulin polyglutamylase complex subunit 3 (PGs3) (EpiDerm tissues): +2.07 fold
Fold Change, TUBB2B Tubulin beta-2B chain (EpiDerm tissues): −3.31 fold
Laminins gene regulation (in words) (EpiDerm tissues): up-regulate
Primary skin irritation (edema or erythema) (skin): NON-PRIMARY IRRITANT
